Laboratory results from patent US12054466B2, “Compounds for the treatment of clostridium difficile infection” (University of Notre Dame du Lac, priority 2016, dated 2024).
Converted amounts (≈) assume the structure as drawn. Where two headings read alike, the source gives them in different places.

Tests used:
Type in all cases: cell-based
[1] = tested on: Eubacterium sp. HM-178; assay: MIC against common gut bacteria; conditions: SP.HM178
[2] = tested on: C. difficile BAA-1804; assay: MIC, broth microdilution; conditions: Clostridioides difficile, BAA1804, C. difficile BAA-1804
[3] = tested on: C. difficile NR49294; assay: MIC, broth microdilution; conditions: Clostridioides difficile, C. difficile NR49294 (NAP4, ribotype 014)
[4] = tested on: C. difficile BAA-1812; assay: MIC, broth microdilution; conditions: Clostridioides difficile, BAA1812, C. difficile BAA-1812
[5] = tested on: C. difficile NR49305; assay: MIC, broth microdilution; conditions: Clostridioides difficile, C. difficile NR49305 (NAP6, ribotype 002)
[6] = tested on: Lactobacillus gasseri HM-644; assay: MIC against common gut bacteria
[7] = tested on: C. difficile NR49302; assay: MIC, broth microdilution; conditions: Clostridioides difficile, C. difficile NR49302 (NAP4, ribotype 020)
[8] = tested on: Bacteroides caccae; assay: MIC against common gut bacteria; conditions: read-out: MIC
[9] = tested on: Bacteroides eggerthii; assay: MIC against common gut bacteria; conditions: read-out: MIC
[10] = tested on: Bacteroides ovatus; assay: MIC against common gut bacteria; conditions: read-out: MIC
[11] = tested on: Bacteroides fragilis; assay: MIC against common gut bacteria; conditions: read-out: MIC
[12] = tested on: C. difficile BAA-1803; assay: MIC, broth microdilution; conditions: Clostridioides difficile, BAA1803, C. difficile BAA-1803 (NAP1, ribotype 027)
[13] = tested on: C. difficile ATCC43598; assay: MIC, broth microdilution; conditions: Clostridioides difficile, C. difficile ATCC43598
[14] = tested on: Veillonella sp. HM-49; assay: MIC against common gut bacteria
[15] = tested on: Fusobacterium nucleatum HM-992; assay: MIC against common gut bacteria; conditions: HM992; Fusobacterium nucleatum HM-992; read-out: MIC
[16] = tested on: C. difficile BAA-1870; assay: MIC, broth microdilution; conditions: Clostridioides difficile, BAA1870, C. difficile BAA-1870 (NAP1, ribotype 27)
[17] = tested on: Corynebacterium sp. HM-784; assay: MIC against common gut bacteria; conditions: SP.HM784; Corynebacterium sp. HM-784; incubated aerobically; read-out: MIC
Method: Minimally-inhibitory concentrations. MICs for C. difficile strains and the common gut bacteria were determined using broth microdilution techniques as reported earlier using brucella broth supplemented with hemin and vitamin K or supplemented BHIS broth (Babakhani et al., J Antimicrob Chemother 2013, 68(3), 515). Lactobacillus MRS broth was used for lactobacillus strains. […] All incubations unless specified otherwise were carried out at 24 or 48 h at 37° C. in an anaerobic chamber (Whitley DG250 workstation, Microbiology International, Frederick, MD). Corynebacterium and lactobacillus species were incubated aerobically.

[18] = tested on: Bifidobacterium longum HM-846; assay: MIC against common gut bacteria; conditions: HM846; Bifidobacterium longum HM-846; read-out: MIC
[19] = tested on: C. difficile BAA-1801; assay: MIC, broth microdilution; conditions: Clostridioides difficile, BAA1801, C. difficile BAA-1801 (nontoxigenic)
[20] = tested on: Lactobacillus reuteri HM-102; assay: MIC against common gut bacteria
[21] = tested on: C. difficile NR49310; assay: MIC, broth microdilution; conditions: Clostridioides difficile, C. difficile NR49310 (NAP7, ribotype 078)
[22] = tested on: C. difficile BAA-1814; assay: MIC, broth microdilution; conditions: Clostridioides difficile, BAA1814, C. difficile BAA-1814
[23] = tested on: Bacteroides vulgatus; assay: MIC against common gut bacteria; conditions: Phocaeicola vulgatus; Bacteroides vulgatus; read-out: MIC
[24] = tested on: C. difficile NR49318; assay: MIC, broth microdilution; conditions: Clostridioides difficile, C. difficile NR49318 (NAP11, ribotype 106)
[25] = tested on: Bacteroides fragilis HM-709; assay: MIC against common gut bacteria; conditions: HM709; Bacteroides fragilis HM-709; read-out: MIC
[26] = tested on: C. difficile ATCC43255; assay: MIC, broth microdilution; conditions: Clostridioides difficile, C. difficile ATCC43255
[27] = tested on: C. difficile NR49292; assay: MIC, broth microdilution; conditions: Clostridioides difficile, C. difficile NR49292 (NAP2, ribotype 001_072)

FC(F)(F)c1ccc(Oc2ccc(-c3noc(-c4ccc5[nH]ccc5c4)n3)cc2)cc1 [Compound 1]
MIC [1]: 2 µg/mL (≈ 4.75 µM)
MIC ([2]; 24 h, read-out: MIC at 24 h): 2 µg/mL (≈ 4.75 µM)
MIC ([2]; 48 h, read-out: MIC at 48 h): 2 µg/mL (≈ 4.75 µM)
MIC ([3]; 24 h, read-out: MIC at 24 h): 1 µg/mL (≈ 2.37 µM)
MIC ([3]; 48 h, read-out: MIC at 48 h): 1 µg/mL (≈ 2.37 µM)
MIC ([4]; 24 h, read-out: MIC at 24 h): 2 µg/mL (≈ 4.75 µM)
MIC ([4]; 48 h, read-out: MIC at 48 h): 2 µg/mL (≈ 4.75 µM)
MIC ([5]; 24 h, read-out: MIC at 24 h): 2 µg/mL (≈ 4.75 µM)
MIC ([5]; 48 h, read-out: MIC at 48 h): 4 µg/mL (≈ 9.49 µM)
MIC ([6]; HM644, Lactobacillus gasseri HM-644, read-out: MIC): > 12 µg/mL
Activity against Lactobacillus gasseri ([6]; in words): not active
MIC ([7]; 24 h, read-out: MIC at 24 h): 1 µg/mL (≈ 2.37 µM)
MIC ([7]; 48 h, read-out: MIC at 48 h): 2 µg/mL (≈ 4.75 µM)
MIC [8]: 4 µg/mL (≈ 9.49 µM)
MIC [9]: 2 µg/mL (≈ 4.75 µM)
MIC [10]: 4 µg/mL (≈ 9.49 µM)
MIC [11]: 4 µg/mL (≈ 9.49 µM)
MIC ([12]; 24 h, read-out: MIC at 24 h): 1 µg/mL (≈ 2.37 µM)
MIC ([12]; 48 h, read-out: MIC at 48 h): 2 µg/mL (≈ 4.75 µM)
MIC ([13]; 24 h, read-out: MIC at 24 h): 1 µg/mL (≈ 2.37 µM)
MIC ([13]; 48 h, read-out: MIC at 48 h): 1 µg/mL (≈ 2.37 µM)
MIC ([14]; SP.HM49, Veillonella sp. HM-49, read-out: MIC): > 12 µg/mL
Activity against Veillonella sp. ([14]; in words): not active
MIC [15]: 1 µg/mL (≈ 2.37 µM)
MIC ([16]; 24 h, read-out: MIC at 24 h): 2 µg/mL (≈ 4.75 µM)
MIC ([16]; 48 h, read-out: MIC at 48 h): 4 µg/mL (≈ 9.49 µM)
MIC [17]: 2 µg/mL (≈ 4.75 µM)
MIC [18]: 0.2 µg/mL (≈ 0.475 µM)
MIC ([19]; 24 h, read-out: MIC at 24 h): 2 µg/mL (≈ 4.75 µM)
MIC ([19]; 48 h, read-out: MIC at 48 h): 4 µg/mL (≈ 9.49 µM)
MIC ([20]; Limosilactobacillus reuteri, HM102, Lactobacillus reuteri HM-102, read-out: MIC): > 12 µg/mL
Activity against Lactobacillus reuteri ([20]; in words): not active
MIC ([21]; 24 h, read-out: MIC at 24 h): 2 µg/mL (≈ 4.75 µM)
MIC ([21]; 48 h, read-out: MIC at 48 h): 2 µg/mL (≈ 4.75 µM)
MIC ([22]; 24 h, read-out: MIC at 24 h): 2 µg/mL (≈ 4.75 µM)
MIC ([22]; 48 h, read-out: MIC at 48 h): 4 µg/mL (≈ 9.49 µM)
MIC [23]: 2 µg/mL (≈ 4.75 µM)
MIC ([24]; 24 h, read-out: MIC at 24 h): 2 µg/mL (≈ 4.75 µM)
MIC ([24]; 48 h, read-out: MIC at 48 h): 2 µg/mL (≈ 4.75 µM)
MIC [25]: 2 µg/mL (≈ 4.75 µM)
MIC ([26]; 24 h, read-out: MIC at 24 h): 2 µg/mL (≈ 4.75 µM)
MIC ([26]; 48 h, read-out: MIC at 48 h): 2 µg/mL (≈ 4.75 µM)
MIC ([27]; 24 h, read-out: MIC at 24 h): 1 µg/mL (≈ 2.37 µM)
MIC ([27]; 48 h, read-out: MIC at 48 h): 2 µg/mL (≈ 4.75 µM)
